The values below come from patent US9862693B2, “Compounds and methods of treating cancer” (The Regents of the University of California, priority 2012, dated 2018).

“Also recorded” adds a separate entry of the source. Where a name gives a salt, the structure may show the parent alone.

For one assay, the system named is A549. The assay is described as follows: MTS cell number assay (CellTiter 96), NSCLC cells. The class given is cell-based. The note with it: Homo sapiens, 1 mM, 72 hours, MTS method, read-out: Biodata extra A549, cell numbers as percentage of vehicle treated controls. On the procedure:
(§1) FIGS. 3A-3B. Metformin analogues inhibit survival of non-small cell lung cancer (NSCLC) (FIG. 3A) and melanoma cell lines (FIG. 3B). A549 (NSCLC) and MDA-MB-435 (melanoma) cells were cultured in medium containing 1% fetal bovine serum and increasing concentrations of metformin (MET) and analogues JD001-JD007 (0.1, 1 and 5 mM). After 3 days, MTS assay was performed. Survival is expressed as percentage of control defined at 100%.
(§2) Cells were incubated in the presence of vehicle, metformin or metformin analogues for 72 hours in their respective media. After treatment cell numbers were determined with the MTS method using the CellTiter 96 Aqueous Non-Radioactive Cell Proliferation Assay (Promega). Numbers express percentage of vehicle treated controls at 1 mM concentration metformin or metformin analogues (JD001-JD009). TNBC: Triple Negative Breast Cancer Cells, ER+BC: Estrogen receptor positive breast cancer.
A general note: Formazan colour is commonly taken as a measure of viable cells.

In another assay the test system is HMEC. In words: MTS cell number assay (CellTiter 96), normal cells. The class given is cell-based. The settings on record: Homo sapiens, 1 mM, 72 hours, MTS method, read-out: Biodata Normal HMEC, cell numbers as percentage of vehicle treated controls. On the procedure: (§3) FIGS. 4A-4B. Effects of metformin and metformin analogues on normal cells. HMEC (FIG. 4A) and HUVEC (FIG. 4B) cells were plated in special media. After 24 hours, cells were treated with increasing concentrations of metformin and analogues JD001-JD009 (0.1, 1 and 5 mM). After 3 days, MTS assay was performed. Survival is expressed as percentage of vehicle treated control. Data represents at least two experiments.
(§4) The effects of compounds described herein (including embodiments) (e.g. metformin analogues) were determined on two types of normal nonmalignant human cells, human umbilical vein endothelial cells (HUVEC) and human mammary epithelial cells (HMEC). There were no significant biologic effects noted on exposure to the metformin analogues.
as §2

A further assay deals with HUVEC. The assay is described as follows: MTS cell number assay (CellTiter 96), normal cells. The class given is cell-based. The note with it: Homo sapiens, 1 mM, 72 hours, MTS method, read-out: Biodata Normal HUVEC, cell numbers as percentage of vehicle treated controls. On the procedure: as §3, §4, §2
A further assay concerns MDA-MB-435. In words: MTS cell number assay (CellTiter 96), melanoma cells. Format: cell-based. The note with it: 1 mM, 72 hours, MTS method. On the procedure: as §1, §2
The subject of another assay is MCF7. In words: MTS cell number assay (CellTiter 96), ER+ breast cancer cells. The settings on record: Homo sapiens, 1 mM, 72 hours, MTS method, read-out: ER+ BC MCF7, cell numbers as percentage of vehicle treated controls. The class given is cell-based. On the procedure:
FIG. 1. Metformin analogues inhibit growth/survival of ER+ MCF7 breast cancer cells. MCF7 cells were cultured in medium containing different concentrations of metformin and analogues (0.1, 1 and 5 mM). After 3 days, the percentage of surviving cells relative to controls, defined as 100% survival, was determined by the MTS assay. Data represents three independent experiments.
Compounds described herein (e.g. metformin derivatives and/or analogues) were tested in human MCF-7 breast cancer cells, a standard ERalpha-positive model of breast malignancy (FIG. 1), and in four different cell lines classified as TNBC, including MDA-MB-231, HCC1937, HCC38 and HCC1806 (FIGS. 2A-2D). […] Experiments were also performed in: 1) a non-small cell lung cancer cell line that is known to be resistant to standard chemotherapy (A549); and 2) a melanoma-like cell model (MDA-MB-435). To find if analogues have effects on normal cells compounds were tested in two different types of cells, human umbilical vein endothelial cells (HUVEC) and human mammary epithelial cells (HMEC). The effects of metformin (MET) were compared with compounds JD001-JD009.
as §2

In the next assay the test system is HCC1937. The assay is described as follows: MTS cell number assay (CellTiter 96), TNBC cells. Format: cell-based. The settings on record: 1 mM, 72 hours, MTS method. On the procedure: (§5) FIGS. 2A-2D. Metformin analogues inhibit growth/survival of triple negative breast cancer cells. MDA-MB-231 (FIG. 2A), HCC38 (FIG. 2B), HCC1937 (FIG. 2C) and HCC1806 (FIG. 2D) cells were cultured in medium containing 1% fetal bovine serum and increasing concentrations of metformin and analogues JD001-JD009 (0.1, 1 and 5 mM). After 3 days, MTS assay was performed. The percentage of surviving cells relative to controls, defined as 100% survival, was determined by the MTS assay.
as §2

The test system of another assay is MDA-MB-231. The assay is described as follows: MTS cell number assay (CellTiter 96), TNBC cells. Format: cell-based. The settings on record: Homo sapiens, 1 mM, 72 hours, MTS method, read-out: Biodata TNBC MDA-MB-231, cell numbers as percentage of vehicle treated controls. On the procedure: as §5, §2
For another assay, the system named is PANC-1 cells. In words: Pancreatic cancer cell proliferation in vitro (cell counts). The settings on record: 0.01, 0.1 and 1 mM, 72 hrs, 1% FBS, P<0.01, hydrochloride. The class given is cell-based, human. On the procedure: FIG. 5. […] Cells were counted and plated. At 24 hrs after plating, cells were treated with metformin and JD003 at 0.01 mM, 0.1 mM, and 1 mM concentrations using medium with 1% FBS. After 72 hrs, cell proliferation was quantitated based on cell counts. Experiments were done 3-times, with results expressed as percent control (mean±SE).
We hypothesize that metformin analogs can be prepared with enhanced anticancer activity and minimal non-target toxicity. […] Human pancreatic cancer cells PANC-1, were grown in DMEM with 2 mM glutamine, 1 mM sodium pyruvate, 100 units/mL penicillin, 100 μg/mL streptomycin and 10% FBS at 37 C in a humidified atmosphere with 10% CO2. Then, effects of treatment with metformin or analog JD003 on cell proliferation in vitro were tested. […] To find if analogs may have deleterious effects on normal human cells, we compared the cellular activity of metformin with that of analogs JD003 and JD004 using a pair of human breast epithelial cells. These included human mammary epithelial cells (HMEC) and MCF-7 tumor cells (MCF-7). […] In contrast, minimal antiproliferative effects are detected in nonmalignant human epithelial cells.

A further assay relates to MCF-7 cells. The assay is described as follows: Cell proliferation ELISA, BrdU colorimetric kit. The settings on record: 0.1 mM and 1 mM, BrdU incorporation, 1% FBS, P<0.01. The class given is cell-based, human. On the procedure:
FIGS. 6A-6C. […] Proliferation was assessed using cell proliferation ELISA, BrdU colorimetric kit (Roche). Cells were counted using a hemocytometer and plated. After 24 hrs, cells were treated with metformin and analogs JD003 and JD004 at 0.1 mM and 1 mM doses using phenol-red free medium with 1% FBS. After 48 hr, BrDU labeling solution was added and incubated for 24 h. Proliferation was assessed using BrDU incorporation by ELISA during DNA synthesis in proliferating cells. Data shown as % control (mean±SE) (n=3 experiments).
We hypothesize that metformin analogs can be prepared with enhanced anticancer activity and minimal non-target toxicity. […] Human pancreatic cancer cells PANC-1, were grown in DMEM with 2 mM glutamine, 1 mM sodium pyruvate, 100 units/mL penicillin, 100 μg/mL streptomycin and 10% FBS at 37 C in a humidified atmosphere with 10% CO2. Then, effects of treatment with metformin or analog JD003 on cell proliferation in vitro were tested. […] In contrast, minimal antiproliferative effects are detected in nonmalignant human epithelial cells. […]
Cell proliferation screening assays were done using cell proliferation ELISA, BrdU colorimetric kit (Roche). Cells were counted using a hemocytometer and plated in 96-well plates. […] Cell proliferation were quantitated based on measures of BrDU incorporation (by ELISA) during DNA synthesis in proliferating cells. […] Results were expressed as mean±SE. […]
A general note: ELISA stands for enzyme-linked immunosorbent assay.

The subject of assay [1] is triple-negative breast cancer cell lines. The settings on record: literature refs (2,3); cited from earlier work.
Assay [2] concerns MIAPaCa-2 and PANC-1 cells xenografted in nude mice. The note with it: reported; cited from earlier work.
For the next assay, the system named is HCC1806. In words: MTS cell number assay (CellTiter 96), TNBC cells. The note with it: 1 mM, 72 hours, MTS method. The class given is cell-based. On the procedure: as §5, §2
The subject of the next assay is HCC38. In words: MTS cell number assay (CellTiter 96), TNBC cells. The note with it: 1 mM, 72 hours, MTS method. The class given is cell-based. On the procedure:
as §5, §2

`N=C(NC(=N)N1CCOCC1)N1CCOCC1` [JD003, N-(Imino(morpholino)methyl)morpholine-4-carboximidamide hydrochloride]: the viability at 1000 µM is 98% in the assay on A549; 107% in the assay on HMEC; 86.7% with HUVEC; 61.3% in the assay with MCF7; 93.2% in the assay on MDA-MB-231. Moreover, the “Biodata extra MDA-MB-435, cell numbers as percentage of vehicle treated controls” value in the assay on MDA-MB-435 is 50.4 percentage of vehicle treated controls. Further, the “Biodata TNBC HCC1937, cell numbers as percentage of vehicle treated controls” value with HCC1937 is reported as 37.8 percentage of vehicle treated controls. Also, in the assay on PANC-1 cells, the “Inhibition of pancreatic cancer cell proliferation compared with metformin” value is “significantly greater inhibition of pancreatic cancer cell proliferation in vitro than parent compound metformin; also recorded: shows promise as a congener with more potent antitumor activity”. In addition, in the assay with MCF-7 cells (hydrochloride), the “Blocking proliferation of MCF-7 cells compared with metformin” value is on record as “more effective in blocking proliferation of MCF-7 cells; also recorded: enhanced antiproliferative activity in breast cancer cells as compared to metformin”.
On to `CN1CCN(C(=N)NC(=N)N2CCN(C)CC2)CC1` [JD004, N-(Imino(4-methylpiperazin-1-yl)methyl)-4-methylpiperazine-1-carboximidamide hydro-chloride], for which the viability at 1000 µM with A549 is 74.3%; in the assay on HMEC it was 113%; with HUVEC it was 89.1%; in the assay on MCF7, 84.4%; in the assay with MDA-MB-231, 89.2%. For the same compound, in the assay with MDA-MB-435, the “Biodata extra MDA-MB-435, cell numbers as percentage of vehicle treated controls” value is recorded as 59.6 percentage of vehicle treated controls. The “Biodata TNBC HCC1937, cell numbers as percentage of vehicle treated controls” value with HCC1937 is given as 64 percentage of vehicle treated controls. In addition, the “Blocking proliferation of MCF-7 cells compared with metformin” value in the assay on MCF-7 cells is “more effective in blocking proliferation of MCF-7 cells; also recorded: enhanced antiproliferative activity in breast cancer cells as compared to metformin”.
On to `CN(C)C(=N)NC(=N)N` [Metformin (000), 1,1-dimethyl-biguanide hydrochloride, reference compound], for which the “Antitumor activity against triple-negative breast cancer cell lines” value in [1] is on record as “only at high millimolar concentrations”. The viability at 1000 µM with A549 stood at 72.2%; in the assay with HMEC, 99.8%; in the assay on HUVEC, 83.9%; with MCF7, 105%; in the assay with MDA-MB-231, 110%. For the same compound, the “Biodata extra MDA-MB-435, cell numbers as percentage of vehicle treated controls” value in the assay with MDA-MB-435 is recorded as 77.7 percentage of vehicle treated controls. The “Growth of xenografted pancreatic cancer cells” value in assay [2] is “significantly decrease growth”. Further, the “Biodata TNBC HCC1937, cell numbers as percentage of vehicle treated controls” value with HCC1937 was 92.9 percentage of vehicle treated controls. In addition, in the assay with HCC1806, the “Biodata TNBC HCC1806, cell numbers as percentage of vehicle treated controls” value is 90.2 percentage of vehicle treated controls. Besides, the “Biodata TNBC HCC38, cell numbers as percentage of vehicle treated controls” value in the assay with HCC38 is 92.5 percentage of vehicle treated controls.
